# How the values were obtained:
# [1] = tested on: conscious hypertensive DOCA-salt rats; test: Acute oral administration: MABP and HR recording in conscious freely moving DOCA-salt rats; assay type: in vivo, rat; conditions: single oral administration
# Protocol: Male deoxycorticosterone acetate (DOCA)-salt rats weighing 250 to 350 g were purchased from Charles River Laboratories (L'Arbresle, France). Animals were randomly assigned in each group with allocation concealment, and blinding procedures were used with coding systemAnimal care and surgical procedures were performed according to the Directive 2010/63/EU. The project was submitted to the appropriate ethics committee and authorization was obtained: 30 CEEA No 59, reference number 01962.01. Animals were kept under artificial light (12 h light/12 h dark cycle) with ad libitum access to a standard diet and saline water (0.9% NaCl, 0.2% KCl).
# Male DOCA-salt rats were anesthetized with 3% isoflurane (Iso-Vet®, Piramal, UK) for induction and 1.5-2% isoflurane for maintenance. A catheter (0.011″X.024″X.0065″) was inserted into the right femoral artery to monitor mean arterial blood pressure (MABP) and heart rate (HR). The catheters were tunneled subcutaneously to exit from the neck. Animals were allowed to recover from surgery for at least 48 h before MABP recording. Baseline MABP was recorded before drug administration during 30 minutes to 1 hour. One hour after the start of BP recording, firibastat (30 mg/kg), enalapril (5 or 10 mg/kg) and HCTZ (5 or 10 mg/kg) alone or in combination at different doses were administered to the conscious unrestrained rats by oral route. After compound administration, BP was monitored for 6 hours. MABP was calculated with the […] system (Phymep, Paris, France), consisting of a MatLab hardware unit and CHART software, running on a Macintosh computer. MABP and HR measurements were calculated by the BP signal.
# [2] = tested on: spontaneously hypertensive rats (SHRs); conditions: oral administrations, 15 to 150 mg/kg; cited from earlier work
# hypertensive patients = conditions: monotherapy; mild to moderate hypertensive patients and diverse high-risk hypertensive population; cited from earlier work
# [3] = tested on: conscious hypertensive deoxycorticosterone acetate (DOCA) salt rats; conditions: oral administrations, 15 to 150 mg/kg; cited from earlier work
compound,measurement,setting,value
"NS(=O)(=O)c1cc2c(cc1Cl)NCNS2(=O)=O [HCTZ, hydrochlorothiazide]",change in BP,[1]; HCTZ 10 mg/kg alone,did not induce any significant change in BP
"N[C@@H](CCS(=O)(=O)O)CSSC[C@@H](N)CCS(=O)(=O)O [firibastat, (3S,3S′) 4,4′-disulfanediylbis(3-aminobutane 1-sulfonic acid)]",effect on BP,[2],dose-dependent decrease in BP
same,effect on BP,hypertensive patients,lower BP
same,effect on BP,[3],dose-dependent decrease in BP
same,decrease in BP (change in MABP from baseline),"[1]; firibastat 30 mg/kg alone, 5 h post-dosing",−35.4±5.2 mmHg
CCOC(=O)[C@H](CCc1ccccc1)N[C@@H](C)C(=O)N1CCC[C@H]1C(=O)O [enalapril],change in BP,[1]; enalapril 10 mg/kg alone,did not induce any significant change in BP

# Reference: US20230233492A1, “PHARMACEUTICAL COMBINATION COMPRISING A BRAIN AMINOPEPTIDASE A INHIBITOR, A DIURETIC AND A BLOCKER OF THE SYSTEMIC RENIN-ANGIOTENSIN SYSTEM” (QUANTUM GENOMICS, priority 2020, published 2023)
